Results as given in patent US12649745B2, “Amino-pyrimidine cyclo-amides” (Hoffmann-La Roche Inc., priority 2020, dated 2026).

biological target: T1, human Autotaxin (ATX) (Homo sapiens, UniProt Q13822); assay: Human ATX enzyme inhibition assay (LPC substrate, choline oxidase/HRP/Amplex Red coupled format); type: biochemical; settings: recombinant hATX 1 nM, 18:1 LPC 30 μM, fluorescence at 90 mins minus 5 mins
T1 construct: generate a full length human ENPP2 ORF with or without a 3′-6×His tag; 6xHis (C); made in house; host or cells: FreeStyle 293-F cells (transient transfection), purified from culture supernatant
Protocol: Human ATX Enzyme Inhibition Assay
To identify inhibitors of the human Autotaxin (ATX) enzyme an in-vitro biochemical profiling assay has been developed using lysophosphatidylcholine (LPC) as substrate and recombinant enzyme. ATX activity is assayed via a coupled enzyme format where choline produced from LPC hydrolysis is converted to hydrogen peroxide by choline oxidase (CO). Hydrogen peroxide is in turn used as a co-substrate by horseradish peroxidase (HRP) to oxidise Amplex Red® and generate the red-fluorescent product, Resorufin.
50 mM Tris-HCl (pH 8.0); 120 mM NaCl; 20 mM CaCl2; 5 mM KCl; 1 mM MgCl2; 0.01% Triton X-100, sterile-filtered and stored at 4° C.
50 mM Tris-HCl (pH 8.0); 150 mM NaCl
human Autotaxin (hATX): 0.97 mg/ml (9.718 μM) Molecular weight 99817. Working solution of 1.5 μM used in this assay.
100 mM 18:1 LPC dissolved in reagent dilution-buffer.
500 U/ml Choline Oxidase in reagent dilution buffer.
2540 U/ml Horseradish Peroxidase, in reagent dilution buffer (10.95 mg/ml).
20 mM Amplex Red (10-Acetyl-3,7-dihydroxy-phenoxazin) in DMSO.
Black, 384-well plate, black with clear bottom, non-treated surface.
Test compounds are received pre-diluted in DMSO as an 11-point concentration-response (0.5 mM highest concentration; 1 in 3.162 dilution). Test compounds are pre-diluted 1:1 (10 μL compound+10 μL assay buffer) in a 96-well conical bottomed plate prior to use.
ATX is diluted to 2.2 nM in assay buffer. Choline oxidase and horseradish peroxidase are diluted to 7.3 U/ml and 14.7 U/ml, respectively. 18:1 LPC and Amplex Red® are diluted to 110 μM and 183.3 μM, respectively (solution protected from light). 2.2 μL of compound pre-dilution or 50% DMSO is added to the reaction plate followed by 25 μL of ATX or assay buffer (negative control). Assay plate is mixed and incubated at room temperature for 10 mins. 15 μL of choline oxidase/horseradish peroxidase is then added. To initiate the reaction 15 μL of LPC 18:1/Amplex Red is added. Assay plate is mixed and incubated at room temperature in the dark. Fluorescence is measured at 5 mins (for background subtraction) and 90 mins.
Final Assay Concentrations:
Horse Radish Peroxidase: 4 U/ml
Fluorescence at 5-minutes is subtracted from the 90-minute end point data and normalized with respect to the positive control. IC50 values are calculated.
Results in the enzymatic ATX inhibition assay are provided for compounds of formula (I).

| SMILES | IC50 [nM] |
| --- | --- |
| N#Cc1cc(Cl)cc2c1C[C@@H](Nc1ncc3c(n1)CN(C1CCOC1)C3=O)C2 (mixture of isomers) [Example 11, (S,S) and (S,R)-6-chloro-2-((5-oxo-6-(tetrahydrofuran-3-yl)-6,7-dihydro-5H-pyrrolo[3,4-d]pyrimidin-2-yl)amino)-2,3-dihydro-1H-indene-4-carbonitrile] | 6 |
| N#Cc1cc(Cl)cc2c1C[C@@H](Nc1ncc3c(n1)CCN(C1CCOC1)C3=O)C2 (mixture of isomers) [Example 32, (S,S) and (S,R)-6-chloro-2-((5-oxo-6-(tetrahydrofuran-3-yl)-5,6,7,8-tetrahydropyrido[4,3-d]pyrimidin-2-yl)amino)-2,3-dihydro-1H-indene-4-carbonitrile] | 4 |
| O=C1c2cnc(NC3Cc4ccc(Cl)cc4C3)nc2CN1C1COC1 (centres unmarked) [Example 1, 2-((5-chloro-2,3-dihydro-1H-inden-2-yl)amino)-6-(oxetan-3-yl)-6,7-dihydro-5H-pyrrolo[3,4-d]pyrimidin-5-one] | 150 |
| CC1(N2Cc3nc(NC4Cc5ccc(Cl)cc5C4)ncc3C2=O)COC1 (centres unmarked) [Example 2, 2-((5-chloro-2,3-dihydro-1H-inden-2-yl)amino)-6-(3-methyloxetan-3-yl)-6,7-dihydro-5H-pyrrolo[3,4-d]pyrimidin-5-one] | 183 |
| CC1(N2Cc3nc(N[C@H]4Cc5cc(Cl)cc(C#N)c5C4)ncc3C2=O)COC1 [Example 3, (S)-6-chloro-2-((6-(3-methyloxetan-3-yl)-5-oxo-6,7-dihydro-5H-pyrrolo[3,4-d]pyrimidin-2-yl)amino)-2,3-dihydro-1H-indene-4-carbonitrile] | 5 |
| O=C1c2cnc(NC3Cc4ccc(Cl)cc4C3)nc2CN1C1CC2(C1)CC(F)(F)C2 (centres unmarked) [Example 4, 2-((5-chloro-2,3-dihydro-1H-inden-2-yl)amino)-6-(6,6-difluorospiro[3.3]heptan-2-yl)-6,7-dihydro-5H-pyrrolo[3,4-d]pyrimidin-5-one] | 42 |
| O=C1c2cnc(NC3Cc4ccc(Cl)cc4C3)nc2CN1C1CC(F)(F)C1 (centres unmarked) [Example 5, 2-((5-chloro-2,3-dihydro-1H-inden-2-yl)amino)-6-(3,3-difluorocyclobutyl)-6,7-dihydro-5H-pyrrolo[3,4-d]pyrimidin-5-one] | 49 |
| CC1(N2Cc3nc(N[C@H]4Cc5cc(Cl)cc(C#N)c5C4)ncc3C2=O)CC(F)(F)C1 [Example 6, (S)-6-chloro-2-((6-(3,3-difluoro-1-methylcyclobutyl)-5-oxo-6,7-dihydro-5H-pyrrolo[3,4-d]pyrimidin-2-yl)amino)-2,3-dihydro-1H-indene-4-carbonitrile] | 4 |
| N#Cc1cc(Cl)cc2c1C[C@@H](Nc1ncc3c(n1)CN(C1CC4(C1)CC(F)(F)C4)C3=O)C2 [Example 7, (S)-6-chloro-2-((6-(6,6-difluorospiro[3.3]heptan-2-yl)-5-oxo-6,7-dihydro-5H-pyrrolo[3,4-d]pyrimidin-2-yl)amino)-2,3-dihydro-1H-indene-4-carbonitrile] | 3 |
| N#Cc1cc(Cl)cc2c1C[C@@H](Nc1ncc3c(n1)CN(C1CC(F)(F)C1)C3=O)C2 [Example 8, (S)-6-chloro-2-((6-(3,3-difluorocyclobutyl)-5-oxo-6,7-dihydro-5H-pyrrolo[3,4-d]pyrimidin-2-yl)amino)-2,3-dihydro-1H-indene-4-carbonitrile] | 3 |
| N#Cc1cc(Cl)cc2c1C[C@@H](Nc1ncc3c(n1)CN(C1CCOCC1)C3=O)C2 [Example 9, (S)-6-chloro-2-((5-oxo-6-(tetrahydro-2H-pyran-4-yl)-6,7-dihydro-5H-pyrrolo[3,4-d]pyrimidin-2-yl)amino)-2,3-dihydro-1H-indene-4-carbonitrile] | 5 |
| N#Cc1cc(Cl)cc2c1C[C@@H](Nc1ncc3c(n1)CN(CC(F)(F)F)C3=O)C2 [Example 10, (S)-6-chloro-2-((5-oxo-6-(2,2,2-trifluoroethyl)-6,7-dihydro-5H-pyrrolo[3,4-d]pyrimidin-2-yl)amino)-2,3-dihydro-1H-indene-4-carbonitrile] | 2 |
| CC(C)N1Cc2nc(N[C@H]3Cc4cc(Cl)cc(C#N)c4C3)ncc2C1=O [Example 12, (S)-6-chloro-2-((6-isopropyl-5-oxo-6,7-dihydro-5H-pyrrolo[3,4-d]pyrimidin-2-yl)amino)-2,3-dihydro-1H-indene-4-carbonitrile] | 3 |
| N#Cc1cc(Cl)cc2c1C[C@@H](Nc1ncc3c(n1)CN(C1CC1)C3=O)C2 [Example 13, (S)-6-chloro-2-((6-cyclopropyl-5-oxo-6,7-dihydro-5H-pyrrolo[3,4-d]pyrimidin-2-yl)amino)-2,3-dihydro-1H-indene-4-carbonitrile] | 2 |
| N#Cc1cc(Cl)cc2c1C[C@@H](Nc1ncc3c(n1)CN(CC1COC1)C3=O)C2 [Example 14, (S)-6-chloro-2-((6-(oxetan-3-ylmethyl)-5-oxo-6,7-dihydro-5H-pyrrolo[3,4-d]pyrimidin-2-yl)amino)-2,3-dihydro-1H-indene-4-carbonitrile] | 3 |
| CC1(N2Cc3nc(N[C@H]4Cc5cc(Cl)cc(C#N)c5C4)ncc3C2=O)CC1 [Example 15, (S)-6-chloro-2-((6-(1-methylcyclopropyl)-5-oxo-6,7-dihydro-5H-pyrrolo[3,4-d]pyrimidin-2-yl)amino)-2,3-dihydro-1H-indene-4-carbonitrile] | 2 |
| N#Cc1cc(Cl)cc2c1C[C@@H](Nc1ncc3c(n1)CN(C1COC1)C3=O)C2 [Example 16, (S)-6-chloro-2-((6-(oxetan-3-yl)-5-oxo-6,7-dihydro-5H-pyrrolo[3,4-d]pyrimidin-2-yl)amino)-2,3-dihydro-1H-indene-4-carbonitrile] | 4 |
| N#Cc1cc(Cl)cc2c1C[C@@H](Nc1ncc3c(n1)CCN(C1COC1)C3=O)C2 [Example 17, (S)-6-chloro-2-((6-(oxetan-3-yl)-5-oxo-5,6,7,8-tetrahydropyrido[4,3-d]pyrimidin-2-yl)amino)-2,3-dihydro-1H-indene-4-carbonitrile] | 3 |
| N#Cc1cc(Cl)cc2c1C[C@@H](Nc1ncc3c(n1)CN(CC1CC1)C3=O)C2 [Example 18, (S)-6-chloro-2-((6-(cyclopropylmethyl)-5-oxo-6,7-dihydro-5H-pyrrolo[3,4-d]pyrimidin-2-yl)amino)-2,3-dihydro-1H-indene-4-carbonitrile] | 3 |
| N#Cc1cc(Cl)cc2c1C[C@@H](Nc1ncc3c(n1)CN([C@H]1C[C@H](O)C1)C3=O)C2 [Example 19] | 5 |
| COCCN1Cc2nc(N[C@H]3Cc4cc(Cl)cc(C#N)c4C3)ncc2C1=O [Example 20, (S)-6-chloro-2-((6-(2-methoxyethyl)-5-oxo-6,7-dihydro-5H-pyrrolo[3,4-d]pyrimidin-2-yl)amino)-2,3-dihydro-1H-indene-4-carbonitrile] | 5 |
| CC(C)(O)CN1Cc2nc(N[C@H]3Cc4cc(Cl)cc(C#N)c4C3)ncc2C1=O [Example 21, (S)-6-chloro-2-((6-(2-hydroxy-2-methylpropyl)-5-oxo-6,7-dihydro-5H-pyrrolo[3,4-d]pyrimidin-2-yl)amino)-2,3-dihydro-1H-indene-4-carbonitrile] | 5 |
| N#Cc1cc(Cl)cc2c1C[C@@H](Nc1ncc3c(n1)CN(CCF)C3=O)C2 [Example 22, (S)-6-chloro-2-((6-(2-fluoroethyl)-5-oxo-6,7-dihydro-5H-pyrrolo[3,4-d]pyrimidin-2-yl)amino)-2,3-dihydro-1H-indene-4-carbonitrile] | 2 |
| CN1Cc2nc(N[C@H]3Cc4cc(Cl)cc(C#N)c4C3)ncc2C1=O [Example 23, (S)-6-chloro-2-((6-methyl-5-oxo-6,7-dihydro-5H-pyrrolo[3,4-d]pyrimidin-2-yl)amino)-2,3-dihydro-1H-indene-4-carbonitrile] | 3 |
| N#Cc1cc(Cl)cc2c1C[C@@H](Nc1ncc3c(n1)CN(CC1(O)CC1)C3=O)C2 [Example 24, (S)-6-chloro-2-((6-((1-hydroxycyclopropyl)methyl)-5-oxo-6,7-dihydro-5H-pyrrolo[3,4-d]pyrimidin-2-yl)amino)-2,3-dihydro-1H-indene-4-carbonitrile] | 9 |
| CC(=O)N1CCC(N2Cc3nc(N[C@H]4Cc5cc(Cl)cc(C#N)c5C4)ncc3C2=O)CC1 [Example 25, (S)-2-((6-(1-acetylpiperidin-4-yl)-5-oxo-6,7-dihydro-5H-pyrrolo[3,4-d]pyrimidin-2-yl)amino)-6-chloro-2,3-dihydro-1H-indene-4-carbonitrile] | 6 |
